Test results published in patent US20070066681A1, “Pharmaceutical composition for treating fatty liver or hepatic disease” (CHUGAI SEIYAKU KAUSHIKI KAISHA, priority 2003, published 2007).

Key:
Assay type in all cases: in vivo
[1] = system: excess apoAI expressing mice fed with high fat diet; test: Action of BO-653 on excess apoAI expressing mice fed with high fat diet (fatty liver and associated hepatic disease); details: for AST (serum) / Liver weight / Total cholesterol (serum): 0.6% BO-653 or 0.5% probucol in high fat diet, 37 weeks of feeding, mean ± standard error; for blood AST compared with high fat diet group (in words) / liver weight compared with high fat diet group (in words): drug-containing high fat diet vs high fat diet only, 37 weeks
Text: The therapeutic activity of BO-653 against fatty liver and associated hepatic disease was investigated using excess apoAI expressing mice which were fed with a high fat diet to induce fatty liver and further develop hepatic diseases.
ApoAI, i.e., apolipoprotein AI, is an apolipoprotein constituting high density lipoproteins mainly responsible for blood lipid metabolism in rodents including mice. In mice expressing excess apoAI, blood cholesterol levels are originally high. Thus, even if they are fed with a high fat diet for causing the onset of fatty liver, increases in blood cholesterol are relatively small. Such mice are advantageous in that the influence of changes in blood cholesterol on the results of the test need not be considered in evaluating the therapeutic activity of BO-653 against fatty liver and associated hepatic disease.
(§1) Mice expressing excess apoAI (female, 10 to 11 weeks of age, purchased from Jackson Laboratories) were divided into 4 groups of N-animals. The animals of the respective groups were fed with a normal diet, a high fat diet, a 0.6% BO-653-containing high fat diet (hereinafter referred to as B+ high fat diet), and a 0.5% probucol-containing high fat diet (hereinafter referred to as P+ high fat diet).
(§2) The B+high fat diet and the P+ high fat diet were prepared by removing cellulose in amounts corresponding to 0.60% and 0.50%, respectively, from the high fat diet of the above composition, and adding the corresponding amounts of BO-653 and probucol, respectively, to the remaining composition. Probucol is a liposoluble antioxidant.
(§3) Serum was separated from the collected blood, and AST and total cholesterol in the serum were measured with an autoanalyzer (COBS FARAII ROCHE). The entire body of the animal subjected to the laparotomy and blood collection was perfused with physiological saline, and the weight of the liver was measured.

[2] = system: C57BL/6J mice fed with high fat diet; test: Same high fat diet test in C57BL/6J mice expressing apolipoprotein AI normally; details: B+ high fat diet (0.6% BO-653), only high fat diet: 275±31
Procedure: as §1, §2, §3
(§4) The same tests were conducted using C57BL/6J mice (female, 6 weeks of age, purchased from CLEA Japan) expressing apolipoprotein AI normally, and apoAI deficiency mice (female, 10 to 11 weeks of age, purchased from Jackson Laboratories) expressing no apolipoprotein AI in contrast to the animals in the present Test Example.

[3] = system: apoAI deficiency mice fed with high fat diet; test: Same high fat diet test in apoAI deficiency mice; details: B+ high fat diet (0.6% BO-653), only high fat diet: 159±10
Procedure: as §1, §2, §3, §4

apoE deficiency mice = test: Effect of BO-653 in apoE deficiency mice
Procedure: Besides, the effect of BO-653 was tested using apoE deficiency mice. These mice are known as mice showing high blood total cholesterol levels even on a normal diet and, at the same time, show high blood AST even on a normal diet.

SMILES | AST (serum) [1] [U/L] | Liver weight [1] [mg] | Total cholesterol (serum) [1] [mg/dL] | blood AST compared with high fat diet group (in words) [1] | liver weight compared with high fat diet group (in words) [1] | suppression of AST leakage from liver cells, action relative to probucol ([1]; decline in blood AST, B+ vs P+ high fat diet) | serum AST [2] | blood ASL [3] | blood AST (apoE deficiency mice) | blood total cholesterol values (apoE deficiency mice)
CC(C)(Sc1cc(C(C)(C)C)c(O)c(C(C)(C)C)c1)Sc1cc(C(C)(C)C)c(O)c(C(C)(C)C)c1 [probucol, reference compound] | 218 ± 18 | 2923 ± 185 | 203 ± 10 | not as great as those in the B+ high fat diet group | not as great as those in the B+ high fat diet group | – | – | – | – | –
CCCCCC1(CCCCC)Cc2c(cc(C(C)(C)C)c(O)c2C(C)(C)C)O1 [BO-653, 4,6-di-t-butyl-5-hydroxy-2,2-di-n-pentyl-2,3-dihydrobenzofuran] | 96 ± 7 | 2789 ± 106 | 353 ± 32 | greatly lower | significantly less | several times as high as that of probucol | 181±18 | 85±8 | lowered | without involving changes
